*1 amine or outer side, *2 acyl side, *3 side chain or, on linkers, in order; H or OH if unused. Where a SMILES comes first, the peptide text is derived from it. Bridges are numbered along the chain shown (N, C = ends). [ ]: non-standard residue; d: D form. The star is where a group is joined. ξ: configuration not given here. Phe(4-COOH) = N[C@@H](Cc1ccc(C(=O)O)cc1)C(=O)O; Bip = N[C@@H](Cc1ccc(-c2ccccc2)cc1)C(=O)O; Phe(3-Me) = Cc1cccc(C[C@H](N)C(=O)O)c1; NMeAEEA = CN(CCOCCOCC(=O)[*:2])[*:1]; Cha = N[C@@H](CC1CCCCC1)C(=O)O; Cit = NC(=O)NCCC[C@H](N)C(=O)O; Thr(3ξ) = CC(O)[C@H](N)C(=O)O; Carboxymethyl = O=C(O)C*; NMeA = CN[C@@H](C)C(=O)O; Aun = NCCCCCCCCCCC(=O)O; Dab = NCC[C@H](N)C(=O)O
Each compound was assayed against T1, PD-1/PD-L1 interaction (PE-labeled human PD-L1-Ig binding to Jurkat cell line over-expressing human PD-1) (Homo sapiens, UniProt Q15116) (assay: Jurkat-PD-1 Cell Binding High-Content Screening Assay (CBA)). Details: Jurkat-hPD-1 cells, PE-labeled PD-L1-Ig 20 nM final; read-out: Jurkat HPD1 PDL1 IC50.
T1 construct: expressed in transfected cells; host or cells: Jurkat
T1 sequence (Q15116 25-288): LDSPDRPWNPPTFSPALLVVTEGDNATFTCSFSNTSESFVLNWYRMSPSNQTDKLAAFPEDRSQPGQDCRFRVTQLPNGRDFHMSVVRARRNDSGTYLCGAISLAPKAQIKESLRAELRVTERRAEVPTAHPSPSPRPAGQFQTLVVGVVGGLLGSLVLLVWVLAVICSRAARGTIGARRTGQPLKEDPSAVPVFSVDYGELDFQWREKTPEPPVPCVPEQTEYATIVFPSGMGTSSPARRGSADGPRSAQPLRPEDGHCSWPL
How it was run: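 High-content imaging read-out of PE-PD-L1-Ig binding (20 nM final, 1 h) to Jurkat-hPD-1 cells, after 2 h compound exposure at 37 °C in DMEM with 10% FCS. Nuclei counterstained with Hoechst 33342 after paraformaldehyde fixation.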

Point of comparison: `Cc1cccc(C[C@@H]2NC(=O)[C@H](CC(=O)O)NC(=O)[C@H](Cc3ccc(OCC(=O)O)cc3)NC(=O)[C@H](C(C)O)NC(=O)CSC[C@@H](C(=O)N[C@@H](CCN)C(=O)NCCCCCCCCCCC(=O)O)NC(=O)[C@H](C(C)O)NC(=O)[C@H](C(C)C)NC(=O)[C@H](CC3CCCCC3)NC(=O)[C@H](CCN)NC(=O)[C@@H](CC(C)C)NC(=O)[C@H](C)N(C)C(=O)[C@H](Cc3ccc(OCC(=O)O)cc3)NC(=O)[C@H](Cc3ccc(-c4ccccc4)cc3)NC(=O)[C@H](Cc3ccc(C(=O)O)cc3)NC2=O)c1` (stereo partly drawn) [Example 2353] ({CH2CO}-[Thr(3ξ)]Y(Carboxymethyl)D[Phe(3-Me)][Phe(4-COOH)][Bip]Y(Carboxymethyl)[NMeA][dL][Dab][Cha]V[Thr(3ξ)]C[Dab][Aun]-OH; thioether N-14), IC50 21.5 nM. Against it:
- Cc1cccc(C[C@@H]2NC(=O)[C@H](CC(=O)O)NC(=O)[C@H](Cc3ccc(OCC(=O)O)cc3)NC(=O)[C@H](C(C)O)NC(=O)CSC[C@@H](C(=O)N[C@@H](CCN)C(=O)NCCCCCCCCCCC(=O)O)NC(=O)[C@H](C(C)O)NC(=O)[C@H](C(C)C)NC(=O)[C@H](CC3CCCCC3)NC(=O)[C@H](CCN)NC(=O)[C@@H](CC(C)C)NC(=O)[C@H](C)N(C)C(=O)[C@H](Cc3ccc(OCC(=O)O)cc3)NC(=O)[C@H](Cc3ccc(-c4ccccc4)cc3)NC(=O)[C@H](CCCNC(N)=O)NC2=O)c1 (stereo partly drawn) [Example 2354] ({CH2CO}-[Thr(3ξ)]Y(Carboxymethyl)D[Phe(3-Me)][Cit][Bip]Y(Carboxymethyl)[NMeA][dL][Dab][Cha]V[Thr(3ξ)]C[Dab][Aun]-OH; thioether N-14) — within 1.5-fold, 21.4 nM
- Cc1cccc(C[C@@H]2NC(=O)[C@H](CC(=O)O)NC(=O)[C@H](Cc3ccc(OCC(=O)O)cc3)NC(=O)[C@H](C(C)O)NC(=O)CSC[C@@H](C(=O)N(C)CCOCCOCC(=O)NCCCCCCCCCCC(=O)O)NC(=O)[C@H](C(C)C)NC(=O)[C@H](C(C)C)NC(=O)[C@H](CC3CCCCC3)NC(=O)[C@H](CCN)NC(=O)[C@@H](CC(C)C)NC(=O)[C@H](C)N(C)C(=O)[C@H](CCCNC(N)=O)NC(=O)[C@H](Cc3ccc(-c4ccccc4)cc3)NC(=O)[C@H](C(C)C)NC2=O)c1 (stereo partly drawn) [Example 2355] ({CH2CO}-[Thr(3ξ)]Y(Carboxymethyl)D[Phe(3-Me)]V[Bip][Cit][NMeA][dL][Dab][Cha]VVC[NMeAEEA][Aun]-OH; thioether N-14) — 2.1-fold higher, 45.3 nM
- Cc1cccc(C[C@@H]2NC(=O)[C@H](CC(=O)O)NC(=O)[C@H](Cc3ccc(OCC(=O)O)cc3)NC(=O)[C@H](CCCNC(=N)N)NC(=O)CSC[C@@H](C(=O)N(C)CCOCCOCC(=O)NCCCCCCCCCCC(=O)O)NC(=O)[C@H](C(C)C)NC(=O)[C@H](C(C)C)NC(=O)[C@H](CC3CCCCC3)NC(=O)[C@H](CCN)NC(=O)[C@@H](CC(C)C)NC(=O)[C@H](C)N(C)C(=O)[C@H](CCCNC(N)=O)NC(=O)[C@H](Cc3ccc(-c4ccccc4)cc3)NC(=O)[C@H](C(C)C)NC2=O)c1 [Example 2356] ({CH2CO}-RY(Carboxymethyl)D[Phe(3-Me)]V[Bip][Cit][NMeA][dL][Dab][Cha]VVC[NMeAEEA][Aun]-OH; thioether N-14) — 1.6-fold higher, 34.7 nM
- Cc1cccc(C[C@@H]2NC(=O)[C@H](CC(=O)O)NC(=O)[C@H](Cc3ccc(OCC(=O)O)cc3)NC(=O)[C@H](C(C)O)NC(=O)CSC[C@@H](C(=O)N(C)CCOCCOCC(=O)NCCCCCCCCCCC(=O)O)NC(=O)[C@H](CCC(N)=O)NC(=O)[C@H](C(C)C)NC(=O)[C@H](CC3CCCCC3)NC(=O)[C@H](CCN)NC(=O)[C@@H](CC(C)C)NC(=O)[C@H](C)N(C)C(=O)[C@H](C(C)C)NC(=O)[C@H](Cc3ccc(-c4ccccc4)cc3)NC(=O)[C@H](C(C)C)NC2=O)c1 (stereo partly drawn) [Example 2357] ({CH2CO}-[Thr(3ξ)]Y(Carboxymethyl)D[Phe(3-Me)]V[Bip]V[NMeA][dL][Dab][Cha]VQC[NMeAEEA][Aun]-OH; thioether N-14) — 3.1-fold higher, 66.7 nM

Source: patent US20260070945A1, “MACROCYCLIC IMMUNOMODULATORS” (Bristol-Myers Squibb Company, priority 2022, published 2026)
